The source of these data is article PMC11445358 (Applied Microbiology and Biotechnology, 2024).

The assay concerns the target T1, microbial transglutaminase (MTG) (Streptomyces mobaraensis, UniProt P81453).
T1 sequence (P81453 77-407): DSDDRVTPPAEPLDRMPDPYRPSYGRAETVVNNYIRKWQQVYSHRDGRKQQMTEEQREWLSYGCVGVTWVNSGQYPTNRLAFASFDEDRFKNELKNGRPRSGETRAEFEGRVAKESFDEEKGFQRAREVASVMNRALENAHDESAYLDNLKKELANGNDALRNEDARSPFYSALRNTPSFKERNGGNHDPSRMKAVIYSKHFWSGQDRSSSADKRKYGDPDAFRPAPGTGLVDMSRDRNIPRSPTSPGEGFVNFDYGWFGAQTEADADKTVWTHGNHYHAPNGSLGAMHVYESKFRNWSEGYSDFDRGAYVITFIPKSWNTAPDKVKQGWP
Description: colorimetric hydroxamate assay, absorbance at […] nm. It is filed as biochemical. As to conditions: 37 °C, 10 min; hydroxamate formation.

SMILES strings stand for the structures. Residues, ends and D or L forms follow the SMILES beside them. *: point of attachment. Cbz = O=C(OCc1ccccc1)*

For the compound `NC(=O)CC[C@H](NC(=O)OCc1ccccc1)C(=O)NCC(=O)O` [Z-QG, N-carbobenzoxy-L-glutaminylglycine] (Cbz-Gln-Gly-OH), the specific activity result is reported as “specific MTG activity was measured with a colorimetric hydroxamate procedure using N-carbobenzoxy-L-glutaminylglycine (Z-QG)”.
